What is called AUC(0-t) is the area under the concentration-time curve up to a stated or last time point. A lower AUC(0-t) goes with less exposure. As usually defined, the Cmax is the maximum level reached in the sampled fluid or tissue. A word on the Tmax: it is the time from dosing to the highest level. The term half-life denotes the time in which the quantity being followed falls by half. Lower therefore signals fast loss.

This is an account of results in paper PMC10938783, “A novel pan-PI3K inhibitor KTC1101 synergizes with anti-PD-1 therapy by targeting tumor suppression and immune activation” (Molecular Cancer, 2024).

Data set [1] can be described thus: Drug concentration measurement in tumors. It counts as in vivo, mouse. Conditions: B16 tumors, continuous dosing. On the procedure: To evaluate the intratumoral concentration of KTC1101, the B16 murine cancer model was established by subcutaneously implanting 2.5 × 10^5 B16 cells into the right lateral flank of C57BL/6 mice. The mouse model was utilized for experiments when tumor volumes reached approximately 100 mm^3. The B16 tumor-bearing C57BL/6 mice were divided into groups, with each group comprising three mice. They were treated with KTC1101 at doses of either 50 or 100 mg/kg (PO). The mice were sacrificed, and tumors were collected on days 1, 5, and 7 post-treatment. Approximately 50 mg of each tumor was homogenized in 1 mL of methanol, followed by centrifugation at 12,000 rpm at 4 °C for 10 min. The concentration of KTC1101 in the supernatant was quantified using LC–MS.

Data set [2] has as its system B16 tumors. Put plainly: B16 syngeneic model in C57BL/6 mice. It counts as in vivo, mouse.
Data set [3] addresses PI3Kβ (PIK3CB/PIK3R1) (Homo sapiens, UniProt P42338). Put plainly: Adapta kinase assay. It is filed as biochemical. On the procedure:
(§1) Procedures for the preparation of KTC1101 are described in supplemental data. To investigate the PI3K inhibitory efficacy of KTC1101, its impact on the kinase activity of PI3K isoforms was assessed using the Adapta kinase assay as previously reported. Initially, a dilution series of 2.5 µL KTC1101 or DMSO (control) was prepared and added to the respective wells of a 384-well plate. Subsequently, optimized 2.5 µL kinase solutions, including PIK3CA/PIK3R1, PIK3CB/PIK3R1, PIK3CG, and PIK3CD/PIK3R1, were introduced to each well. After adding the kinase solutions, 5 µL ATP and PIP2:PS lipid kinase substrate was introduced into each well and incubated for 1 h at room temperature. This step allows for the initiation and progression of the kinase reaction. Following the incubation, a detection solution (5 µL) was added to all the wells. This solution contained 30 mM EDTA to stop the kinase reaction, 6 nM Eu-labeled anti-ADP antibody, and a 3 × concentration of Alexa Fluor® 647 ADP tracer. The EDTA effectively terminates the kinase reaction, while the anti-ADP antibody and ADP tracer are crucial for the detection of ADP produced during the kinase reaction, which correlates with PI3K activity. The plate was then allowed to equilibrate for 30 min at room temperature, ensuring proper binding of the tracer and antibody to the generated ADP. Finally, the fluorescence of each well was measured using a Multi-Mode Microplate Reader (Spark, Tecan). To ascertain the selectivity of KTC1101 for PI3K isoforms and to rule out off-target effects, a kinase panel comprising 50 kinases was tested against KTC1101. This kinase profiling was conducted by Wuhan Heyan Biomedical Technology Co., Ltd.

Data set [4] has as its target PI3Kδ (PIK3CD/PIK3R1) (Homo sapiens, UniProt O00329). In words: Adapta kinase assay. It is filed as biochemical. On the procedure: as §1
Data set [5] deals with PI3Kγ (PIK3CG) (Homo sapiens, UniProt P48736). In words: Adapta kinase assay. It is filed as biochemical. On the procedure: as §1
Chain of PI3Kγ (PIK3CG) (P48736 whole entry): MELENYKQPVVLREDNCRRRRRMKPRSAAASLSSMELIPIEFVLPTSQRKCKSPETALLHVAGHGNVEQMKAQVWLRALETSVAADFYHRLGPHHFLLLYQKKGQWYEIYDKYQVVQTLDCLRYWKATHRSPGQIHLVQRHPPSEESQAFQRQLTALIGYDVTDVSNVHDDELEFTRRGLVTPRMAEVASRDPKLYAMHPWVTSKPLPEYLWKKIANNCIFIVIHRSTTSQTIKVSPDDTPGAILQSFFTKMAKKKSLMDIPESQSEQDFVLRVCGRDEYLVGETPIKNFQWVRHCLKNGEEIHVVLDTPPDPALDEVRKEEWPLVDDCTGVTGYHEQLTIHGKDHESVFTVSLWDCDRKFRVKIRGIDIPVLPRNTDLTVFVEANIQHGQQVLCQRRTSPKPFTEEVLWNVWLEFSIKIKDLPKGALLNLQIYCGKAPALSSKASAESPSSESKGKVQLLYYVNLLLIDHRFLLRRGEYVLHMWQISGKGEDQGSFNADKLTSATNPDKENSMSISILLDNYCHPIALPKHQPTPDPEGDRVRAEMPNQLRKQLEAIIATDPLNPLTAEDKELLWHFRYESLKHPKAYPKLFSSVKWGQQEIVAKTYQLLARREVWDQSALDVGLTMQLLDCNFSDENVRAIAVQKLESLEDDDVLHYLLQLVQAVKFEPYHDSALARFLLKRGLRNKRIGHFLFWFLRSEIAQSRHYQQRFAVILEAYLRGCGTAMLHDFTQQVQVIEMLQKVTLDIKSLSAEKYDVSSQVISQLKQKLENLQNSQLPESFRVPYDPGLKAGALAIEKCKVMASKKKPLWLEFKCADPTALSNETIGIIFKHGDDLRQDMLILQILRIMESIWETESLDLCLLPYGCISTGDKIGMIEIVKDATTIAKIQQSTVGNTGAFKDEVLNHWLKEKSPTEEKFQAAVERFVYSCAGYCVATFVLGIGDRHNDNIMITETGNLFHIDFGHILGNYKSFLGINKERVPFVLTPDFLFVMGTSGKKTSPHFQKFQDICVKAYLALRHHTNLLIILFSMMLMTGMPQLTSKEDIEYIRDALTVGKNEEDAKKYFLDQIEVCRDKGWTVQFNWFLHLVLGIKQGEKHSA
The target of data set [6] is PI3Kα (PIK3CA/PIK3R1) (Homo sapiens, UniProt P42336). Put plainly: Adapta kinase assay. It counts as biochemical. On the procedure:
as §1

For data set [7], the system named is Tregs. Put plainly: T cell suppression assay (CFSE). It counts as cell-based, mouse. On the procedure: Spleens from naive mice were isolated and ground through 70-μm filters to generate a single-cell suspension. After RBC lysis, single-cell suspensions were stained with CD3, CD8, CD4, CD25 or CD127 antibodies. Viable CD8^+ T cells (CD3^+CD8^+), CD4^+ T cells (CD3^+CD4^+), and Tregs (CD3^+CD4^+CD25^+CD127^low/−) from single-cell suspensions were sorted by FACS. Then T cells were labelled with […] in pre-warmed PBS for 10 min at 37 °C. The CFSE-labelled T cells were seeded in 96-well plates pre-coated with 10 μg/mL CD3 and 1 μg/mL CD28 antibodies and cultured in 1640 media with 10% FBS, 1 mM Sodium Pyruvate (Thermo, 11,360,070), 50 μM β-ME and 100 IU/mL IL2, as well as different concentrations of KTC1101 or solvent control. After 72 h, cells were harvested and the CFSE signal was measured by flow cytometry. Cell growth rate was calculated by the percentage of live, proliferated cell number at each drug concentration vs. solvent control.

A short description of data set [8]: Pharmacokinetic study of oral administration. It counts as in vivo. Conditions: mouse, blood, BALB/c male mice, 100 mg/kg p.o. Here is the method: Chromatographic conditions employed a Waters BEH C18 column (2.1 mm × 50.0 mm, 1.7 µm) with a mobile phase comprising acetonitrile with 0.1% formic acid (A) and water with 0.1% formic acid (B), at a flow rate of 0.4 mL/min and a column temperature of 40°C. Gradient elution was used: 0–0.3 min, 20:80 → 20:80 (A:B); 0.3–2.5 min, 20:80 → 60:40 (A:B); 2.5–3.0 min, 60:40 → 100:0 (A:B); 3.0–3.01 min, 100:0 → 20:80 (A:B); 3.01–3.5 min, 20:80 → 20:80 (A:B). Mass spectrometry was performed using electrospray ionization (ESI) in positive ion mode, with a capillary voltage of 1 kV, a desolvation temperature of 450 °C, and a desolvation gas flow of 800 L/h. KTC1101 and internal standard phenacetin parameters were optimized for ionization and collision energies.
KTC1101 was prepared at 1 mg/mL concentration in acetonitrile, and further diluted to create a series of standard solutions. Blood samples were taken from BALB/c male mice (19 ± 2g) at various time points post-oral administration of KTC1101 (100 mg/kg). Samples were processed and analyzed using HPLC coupled with mass spectrometry. Data were calculated using Masslynx 4.1 and DAS 3.0 software.

The structures appear in SMILES notation.

Chain of PI3Kδ (PIK3CD/PIK3R1) (O00329 whole entry): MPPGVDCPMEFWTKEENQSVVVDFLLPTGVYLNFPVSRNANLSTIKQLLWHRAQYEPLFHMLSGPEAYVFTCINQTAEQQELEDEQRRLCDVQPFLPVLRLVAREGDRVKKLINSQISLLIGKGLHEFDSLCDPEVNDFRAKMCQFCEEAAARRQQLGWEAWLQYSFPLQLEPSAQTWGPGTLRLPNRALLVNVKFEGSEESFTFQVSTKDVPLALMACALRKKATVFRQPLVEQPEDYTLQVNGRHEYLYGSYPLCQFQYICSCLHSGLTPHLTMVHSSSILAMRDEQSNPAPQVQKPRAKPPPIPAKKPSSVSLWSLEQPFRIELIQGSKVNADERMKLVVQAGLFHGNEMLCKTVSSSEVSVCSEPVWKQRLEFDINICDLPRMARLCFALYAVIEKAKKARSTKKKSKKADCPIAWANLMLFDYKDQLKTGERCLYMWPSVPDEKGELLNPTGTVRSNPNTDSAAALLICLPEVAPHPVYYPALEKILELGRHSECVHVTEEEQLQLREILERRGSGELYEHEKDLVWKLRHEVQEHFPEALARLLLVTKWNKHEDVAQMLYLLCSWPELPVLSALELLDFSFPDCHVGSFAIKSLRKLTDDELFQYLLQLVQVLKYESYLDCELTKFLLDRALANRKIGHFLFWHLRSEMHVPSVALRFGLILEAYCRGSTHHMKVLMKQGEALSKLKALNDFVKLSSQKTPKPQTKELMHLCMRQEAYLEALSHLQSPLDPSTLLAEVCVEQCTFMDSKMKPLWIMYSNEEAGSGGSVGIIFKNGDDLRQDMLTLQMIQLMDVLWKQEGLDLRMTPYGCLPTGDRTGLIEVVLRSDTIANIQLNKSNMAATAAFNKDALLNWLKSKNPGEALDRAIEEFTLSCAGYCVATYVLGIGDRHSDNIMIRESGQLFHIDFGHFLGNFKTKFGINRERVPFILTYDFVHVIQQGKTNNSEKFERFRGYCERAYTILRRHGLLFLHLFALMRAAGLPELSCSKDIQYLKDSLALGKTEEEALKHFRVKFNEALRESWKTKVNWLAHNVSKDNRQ
Chain of PI3Kδ (PIK3CD/PIK3R1) (P27986 whole entry partner): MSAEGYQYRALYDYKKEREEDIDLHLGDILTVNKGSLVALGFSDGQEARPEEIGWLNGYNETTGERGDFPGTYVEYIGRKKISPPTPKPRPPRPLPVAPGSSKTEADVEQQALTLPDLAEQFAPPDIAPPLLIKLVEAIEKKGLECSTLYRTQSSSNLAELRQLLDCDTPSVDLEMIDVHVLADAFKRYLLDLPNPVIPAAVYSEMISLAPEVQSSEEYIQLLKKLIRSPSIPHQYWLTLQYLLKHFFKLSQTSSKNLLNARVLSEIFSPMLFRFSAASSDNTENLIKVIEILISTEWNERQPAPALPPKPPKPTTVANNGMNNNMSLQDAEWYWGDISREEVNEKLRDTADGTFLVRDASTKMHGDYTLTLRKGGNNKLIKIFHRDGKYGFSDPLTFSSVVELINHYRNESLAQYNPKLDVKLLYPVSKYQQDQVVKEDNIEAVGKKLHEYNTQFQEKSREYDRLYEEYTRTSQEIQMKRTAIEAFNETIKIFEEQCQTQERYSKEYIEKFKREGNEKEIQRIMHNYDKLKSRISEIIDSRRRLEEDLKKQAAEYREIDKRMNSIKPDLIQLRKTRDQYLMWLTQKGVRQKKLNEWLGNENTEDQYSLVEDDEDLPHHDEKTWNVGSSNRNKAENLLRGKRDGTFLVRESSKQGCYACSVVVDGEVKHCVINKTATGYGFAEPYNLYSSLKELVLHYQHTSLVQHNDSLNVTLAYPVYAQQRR
Chain of PI3Kβ (PIK3CB/PIK3R1) (P42338 whole entry, canonical isoform): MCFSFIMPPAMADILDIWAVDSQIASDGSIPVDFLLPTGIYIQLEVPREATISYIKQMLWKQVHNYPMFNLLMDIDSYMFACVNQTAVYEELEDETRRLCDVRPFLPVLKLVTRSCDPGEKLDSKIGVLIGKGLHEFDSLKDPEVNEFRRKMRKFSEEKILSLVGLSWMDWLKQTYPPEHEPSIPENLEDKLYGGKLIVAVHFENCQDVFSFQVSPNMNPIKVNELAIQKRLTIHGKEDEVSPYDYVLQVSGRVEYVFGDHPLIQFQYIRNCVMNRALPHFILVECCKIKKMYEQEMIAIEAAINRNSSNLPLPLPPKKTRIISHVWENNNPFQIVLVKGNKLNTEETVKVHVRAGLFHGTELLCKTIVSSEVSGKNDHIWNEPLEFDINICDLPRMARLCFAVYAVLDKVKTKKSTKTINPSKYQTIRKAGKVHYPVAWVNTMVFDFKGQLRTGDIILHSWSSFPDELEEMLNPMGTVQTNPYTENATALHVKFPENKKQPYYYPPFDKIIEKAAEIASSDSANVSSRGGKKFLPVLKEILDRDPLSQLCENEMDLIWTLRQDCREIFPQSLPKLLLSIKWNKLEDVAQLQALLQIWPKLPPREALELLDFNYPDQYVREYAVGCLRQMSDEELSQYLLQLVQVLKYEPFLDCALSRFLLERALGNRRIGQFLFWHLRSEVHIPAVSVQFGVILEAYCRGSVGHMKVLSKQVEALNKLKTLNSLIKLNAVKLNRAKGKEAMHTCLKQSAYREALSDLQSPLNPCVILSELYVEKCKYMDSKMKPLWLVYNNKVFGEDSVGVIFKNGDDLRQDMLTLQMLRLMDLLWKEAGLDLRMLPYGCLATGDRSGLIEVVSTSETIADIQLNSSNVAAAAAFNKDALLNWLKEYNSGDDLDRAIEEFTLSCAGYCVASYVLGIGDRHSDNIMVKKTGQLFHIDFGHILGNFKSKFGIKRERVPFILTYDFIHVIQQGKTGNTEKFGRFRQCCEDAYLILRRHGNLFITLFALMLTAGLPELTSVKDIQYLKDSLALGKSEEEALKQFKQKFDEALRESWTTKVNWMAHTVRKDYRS
Chain of PI3Kβ (PIK3CB/PIK3R1) (P27986 whole entry partner, canonical isoform): as the sequence (P27986 whole entry partner) above
Chain of PI3Kα (PIK3CA/PIK3R1) (P42336 whole entry): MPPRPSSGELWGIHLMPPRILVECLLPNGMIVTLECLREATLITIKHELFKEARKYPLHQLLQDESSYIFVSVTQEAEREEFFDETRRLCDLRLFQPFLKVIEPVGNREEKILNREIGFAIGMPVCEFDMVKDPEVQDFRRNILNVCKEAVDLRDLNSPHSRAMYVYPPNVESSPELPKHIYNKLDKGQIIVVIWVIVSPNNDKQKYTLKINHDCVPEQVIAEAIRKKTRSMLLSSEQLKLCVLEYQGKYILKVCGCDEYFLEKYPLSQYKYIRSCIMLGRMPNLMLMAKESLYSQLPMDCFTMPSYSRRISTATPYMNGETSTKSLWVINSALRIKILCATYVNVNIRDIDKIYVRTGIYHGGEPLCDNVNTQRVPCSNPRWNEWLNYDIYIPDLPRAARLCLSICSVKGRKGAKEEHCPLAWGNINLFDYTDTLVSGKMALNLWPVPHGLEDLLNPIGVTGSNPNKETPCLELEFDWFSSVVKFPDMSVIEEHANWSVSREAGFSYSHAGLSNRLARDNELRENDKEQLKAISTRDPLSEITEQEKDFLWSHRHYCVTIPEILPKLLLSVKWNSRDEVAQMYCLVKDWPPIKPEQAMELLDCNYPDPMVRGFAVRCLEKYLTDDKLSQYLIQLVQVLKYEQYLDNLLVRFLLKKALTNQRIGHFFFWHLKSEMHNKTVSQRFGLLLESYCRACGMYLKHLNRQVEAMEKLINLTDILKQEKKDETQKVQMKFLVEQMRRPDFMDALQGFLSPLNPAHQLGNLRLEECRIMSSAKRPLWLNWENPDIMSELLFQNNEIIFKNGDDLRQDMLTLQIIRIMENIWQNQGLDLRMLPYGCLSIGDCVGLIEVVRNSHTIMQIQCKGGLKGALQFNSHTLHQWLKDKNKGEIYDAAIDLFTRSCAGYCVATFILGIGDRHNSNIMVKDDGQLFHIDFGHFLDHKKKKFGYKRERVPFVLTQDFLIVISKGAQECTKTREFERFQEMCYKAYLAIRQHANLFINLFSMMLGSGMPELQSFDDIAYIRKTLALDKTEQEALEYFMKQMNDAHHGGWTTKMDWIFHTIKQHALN
Chain of PI3Kα (PIK3CA/PIK3R1) (P27986 whole entry partner): as the sequence (P27986 whole entry partner) above

In the case of `COc1cc(N)cc2c1nc(C(F)F)n2-c1nc(N2CCCOCC2)nc(N2CCOCC2)n1` [KTC1101, 2-(difluoromethyl)-4-methoxy-1-(4-morpholino-6-(1,4-oxazepan-4-yl)-1,3,5-triazin-2-yl)-1H-benzo[d]imidazol-6-amine], the intratumoral drug concentration entry in data set [1] is “accumulation of the drug in continuous dosing”. The “tumor growth over 14 days” value is “comparably suppressed tumor growth” in data set [2] (B16, 50 mg/kg, daily) and “comparably suppressed tumor growth” in data set [2] (B16, 100 mg/kg, 3 days on/4 days off). Besides, the mouse body weight result in data set [2] (B16, 100 mg/kg 3 days on/4 days off and 50 mg/kg daily, 14 days) was “without significant changes in mouse body weight”. For the same compound, in data set [2] (B16, intermittent regimen 100 mg/kg 3 days on/4 days off vs continuous), the mouse survival result is “notably prolonged mouse survival”. Also, the IC50 is 36.3 nM in data set [3]; 1.22 nM in data set [4]; 17.1 nM in data set [5]; 3.72 nM in data set [6]; 2.58 nM in data set [7] (Mus musculus, T-cell, 72 h, read-out: IC50 proliferation). In addition, in data set [7], the “selective inhibition of Treg proliferation over CD8^+ T cells” value is reported as “over a tenfold greater extent than CD8^+ T cells”. The compound further came in with an AUC(0-t) in data set [8] of 9330 ng·h/mL. Moreover, in data set [8], the peak concentration (Cmax) was determined as 1660 ng/mL. For the same compound, the Tmax in data set [8] turned out to be 0.67 h. Moreover, the half-life in data set [8] was 7.19 ± 4.07 h. Also, the CL/F in data set [8] (read-out: CLz/F (converted)) is 179 mL/min/kg. The Vd/F in data set [8] (read-out: Vz/F) is 118 ± 85.5 L/kg.
